Patent US7714006B1, “Methods of modifying the bioavailability of metaxalone” (King Pharmaceuticals Research & Development, Inc., priority 2001, dated 2010)
Where two headings read alike, the source gives them in different places.

Legend:
[1] = Effects of age and gender on fasted PK parameters, study 106 (2×400 mg without food); type: in vivo, human
Method: In addition, the robustness of the results are assessed by applying similar analysis approaches to the data from two other studies: • Study AN151607-101 (hereafter referred to as the 101 study): a two-period, randomized crossover trial with treatment conditions 1×400 mg with food and 1×400 mg without food; • Study AN151607-106 (hereafter referred to as the 106 study): a single dose trial with treatment condition 2×400 mg without food.
Study 106 was a single dose trial conducted in 48 healthy volunteers. The mean age was 24.7 years, with a range from 18 to 50 years. The single treatment condition in this study was 2×400 mg without food. Blood samples for PK analyses were obtained at the same time points as in the 103 and 105 studies.
First, Pearson and Spearman correlation coefficients between age and each of the three PK parameters were computed. The correlation coefficients and two-sided p-values from the test of the null hypothesis of no association are shown below in TABLE VIIIa:
Linear regression models using the natural logarithm of each of the three PK parameters as the dependent variable and age as the independent variable were fitted in order to estimate the magnitude of the associations with age.
Study 106 was a single dose trial conducted in 48 healthy volunteers (24 males, 24 females). The mean age was 24.7 years, with a range from 18 to 50 years. The single treatment condition in this study was 2×400 mg without food. Blood samples for PK analyses were obtained at the same time points as in the 103 and 105 studies.
The same regression modeling strategy as was described in Sections 3.2 and 3.3 was also used. In the initial regression models with a gender effect and separate age effects for males and females, the parameter estimates for all three variables were negative for males and positive for females. In addition, the age effect in females was statistically significant for ln(AUC(last)) and ln(AUC(inf)). However, the tests of equality between the age effects for males and females (i.e., the age-by-gender interaction) were not statistically significant for any of the three variables; the p-values ranged from 0.08 to 0.11.

[2] = Food effect study: single oral Skelaxin 400 mg tablet with vs without food, healthy subjects, plasma pharmacokinetics; type: in vivo, human; settings: for AUC(0-inf) / AUC(0-t) / Cmax / half-life / Tmax: both sexes, human, plasma, oral, 400 mg; for half-life: read-out: T1/2, least squares mean (converted); for Tmax: read-out: Tmax, least squares mean
Method: The effect of food on metaxalone absorption was identified in a study designed to compare the bioavailability of 400 mg of metaxalone in the formulation the drug product Skelaxin® administered to healthy volunteers with and without food.
An objective was to evaluate the bioavailability of metaxalone when administered to subjects with and without food. A single center, single dose, open-label, two-period, randomized, crossover trial in healthy subjects was conducted over a period of approximately 32 days.
Treatment A: metaxalone tablet (400 mg) administered with food
Treatment B: metaxalone tablet (400 mg) administered without food
In fed treatment condition A, study drug was taken 15 minutes after the test meal. The test meal was consumed over a 15 minute time period. There was a 6-day washout period between study drug administrations. Seventeen blood samples were collected, starting with baseline (0 hour) and at the following time points: 0.5, 1, 1.5, 2, 2.5, 3, 3.5, 4, 4.5, 5, 6, 8, 12, 16; 24, and 36 hours.
A total of 44 subjects (31 males/13 females) were enrolled and dosed. Only the plasma of subjects who completed the study were assayed and used for the pharmacokinetic analysis.
A single center, single dose, open label, two-period crossover trial was devised for study in healthy subjects. Each administration was a single oral dose of one Skelaxin® 400 mg tablet with or without food. The study drug was administered as follows:
Treatment A: One (1) 400 mg tablet of metaxalone with 240 mL of room temperature water with food: Breakfast was given to the subjects 30 Minutes prior to dosing and eaten within a 15 minute period. The dose of study drug was administered to the subjects 15 minutes after the breakfast was finished.
Treatment B: One (1) 400 mg tablet of metaxalone with 240 mL of room temperature water without food. The study drug was administered with 240 mL room temperature water. A mouth check was performed to verify that the subjects swallowed the dose. Subjects were sequentially dosed at 1-minute intervals. The actual time of dosing was recorded on the Master Flow Sheet (refer to the Appendix 16.3.2 Clinical Study Data). Drug administration (1×400 mg tablet) was assisted with 240 mL of room temperature water consumed under direct observation. Immediately after administration of product, the subject's oral cavity was checked to confirm complete medication and fluid consumption. Dosing was completed as scheduled in 42 of 44 subjects.
The drug substance, metaxalone, was dosed in tablet form. Content 400 mg; Route: Oral, Batch/Lot No.: SKLWW263F; Expiration Date: FEB03; Manufacturer: West-Ward Pharmaceutical Corp.
All pharmacokinetic parameters were analyzed by noncompartmental methods. The following PK parameters were calculated for the two PK profiles and are defined as follows: […]
Tmax: Time to maximum concentration;
Cmax: Observed maximum concentration;
kel: Slope of terminal linear portion of concentration/time curve;
T1/2: Half-life of metaxalone calculated as: 0.693/Kel;
AUC(last): Area under the curve to last quantifiable concentration as measured by the trapezoidal rule;
AUC(inf): The AUC value extrapolated to infinity calculated as:
AUC(inf)=AUC(last)+C(t)last/Kel where C(t)last is the last measurable concentration.
All statistical analyses were performed using SAS® software version 6.08 or higher. The pharmacokinetic parameters between the two treatments were compared using an appropriate ANOVA model (analysis of variance) that includes terms for treatment, sequence, and period effect. Ninety percent confidence intervals were computed for the Cmax and AUC values of the fed treatment with fasting as the reference treatment. During the study there were no protocol deviations to confound the pharmacokinetic and bioavailability analyses. Study results were not corrected for drug potency.
Differences were declared to be significant at the 5% level. […]

[3] = Treatment A: 400 mg tablet with food
[4] = Treatment B: 400 mg tablet without food
[5] = fed vs fasted, ln-transformed data

## Cc1cc(C)cc(OCC2CNC(=O)O2)c1 (centres unmarked) [metaxalone, 5-[(3,5-dimethylphenoxy)methyl]-2 oxazolidinone]
[1]; females n=24
  Pearson correlation, age vs ln(AUC(inf)): 0.416
  Pearson correlation, age vs ln(AUC(last)): 0.431
  Pearson correlation, age vs ln(Cmax): 0.336
  Spearman correlation, age vs ln(AUC(inf)): 0.368
  Spearman correlation, age vs ln(AUC(last)): 0.428
  Spearman correlation, age vs ln(Cmax): 0.279
[1]; males n=24
  Pearson correlation, age vs ln(AUC(inf)): −0.184
  Pearson correlation, age vs ln(AUC(last)): −0.178
  Pearson correlation, age vs ln(Cmax): −0.202
  Spearman correlation, age vs ln(AUC(inf)): −0.368
  Spearman correlation, age vs ln(AUC(last)): −0.365
  Spearman correlation, age vs ln(Cmax): −0.316
[1]; n=48
  Pearson correlation, age vs ln(AUC(inf)): 0.348
  Pearson correlation, age vs ln(AUC(last)): 0.349
  Pearson correlation, age vs ln(Cmax): 0.260
  Spearman correlation, age vs ln(AUC(inf)): 0.173
  Spearman correlation, age vs ln(AUC(last)): 0.189
  Spearman correlation, age vs ln(Cmax): 0.125
[2]; 400 mg tablets, single dose, with food vs without
  Bioavailability when administered with food: increased
[2]; Treatment A: 400 mg tablet with food, read-out: AUC(inf), least squares mean
  AUC(0-inf): 8540 ng·h/mL
[2]; Treatment A: 400 mg tablet with food, read-out: AUC(last), least squares mean
  AUC(0-t): 8440 ng·h/mL
[2]; Treatment A: 400 mg tablet with food, read-out: Cmax, least squares mean
  Cmax: 1770 ng/mL
[2]; Treatment A: 400 mg tablet with food, read-out: Ln-Transformed AUC(inf), geometric mean
  AUC(0-inf): 7630 ng·h/mL
[2]; Treatment A: 400 mg tablet with food, read-out: Ln-Transformed AUC(last), geometric mean
  AUC(0-t): 7520 ng·h/mL
[2]; Treatment A: 400 mg tablet with food, read-out: Ln-Transformed Cmax, geometric mean
  Cmax: 1540 ng/mL
[2]; [3]
  half-life: 2.37 h
  Tmax: 4.29 h
[2]; Treatment B: 400 mg tablet without food, read-out: AUC(inf), least squares mean
  AUC(0-inf): 7480 ng·h/mL
[2]; Treatment B: 400 mg tablet without food, read-out: AUC(last), least squares mean
  AUC(0-t): 6960 ng·h/mL
[2]; Treatment B: 400 mg tablet without food, read-out: Cmax, least squares mean
  Cmax: 983 ng/mL
[2]; Treatment B: 400 mg tablet without food, read-out: Ln-Transformed AUC(inf), geometric mean
  AUC(0-inf): 6620 ng·h/mL
[2]; Treatment B: 400 mg tablet without food, read-out: Ln-Transformed AUC(last), geometric mean
  AUC(0-t): 6090 ng·h/mL
[2]; Treatment B: 400 mg tablet without food, read-out: Ln-Transformed Cmax, geometric mean
  Cmax: 865 ng/mL
[2]; [4]
  half-life: 9.04 h
  Tmax: 3.32 h
[2]; [5]
  % Ratio (A/B) AUC(inf): 115.35%
  % Ratio (A/B) AUC(last): 123.48%
  % Ratio (A/B) Cmax: 177.53%
